{
  "source": "paper PMC11594981",
  "about": "(International Journal of Molecular Sciences, 2024)",
  "target": "T1, CYP3A4 (Homo sapiens, UniProt P08684)",
  "T1 construct": "recombinant CYP3A4 (BACULOSOMES Plus reagent)",
  "T1 sequence (P08684 2-503)": "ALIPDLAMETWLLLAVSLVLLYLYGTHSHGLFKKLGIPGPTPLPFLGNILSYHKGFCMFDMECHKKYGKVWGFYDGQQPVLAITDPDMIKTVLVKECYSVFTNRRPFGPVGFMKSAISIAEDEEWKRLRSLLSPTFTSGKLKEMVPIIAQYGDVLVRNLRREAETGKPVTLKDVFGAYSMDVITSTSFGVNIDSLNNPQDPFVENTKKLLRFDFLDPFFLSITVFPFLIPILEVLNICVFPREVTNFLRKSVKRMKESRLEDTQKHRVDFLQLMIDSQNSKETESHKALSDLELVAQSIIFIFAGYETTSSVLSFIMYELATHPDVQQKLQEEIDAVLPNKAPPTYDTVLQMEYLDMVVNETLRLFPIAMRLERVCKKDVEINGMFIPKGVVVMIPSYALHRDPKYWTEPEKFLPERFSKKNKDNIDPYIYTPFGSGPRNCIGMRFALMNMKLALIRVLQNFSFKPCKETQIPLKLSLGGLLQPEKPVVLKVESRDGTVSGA",
  "experiment": "fluorogenic substrate turnover by recombinant CYP3A4 (Vivid kit)",
  "format": "biochemical",
  "data": [
    {"smiles": "N#Cc1cc2ccc(OCOCc3ccccc3)cc2oc1=O", "note": "[BOMCC, 7-benzyloxymethoxy-3-cyano-coumarin]", "values": [
      {"measurement": "fluorogenic substrate turnover by recombinant CYP3A4 (Vivid kit)", "result": "Inhibition of BOMC transformation by CYP3A4 in the presence of ivermectin"}
    ]}
  ]
}
